Experimental data as given in EP4389746A2, “P2X3 RECEPTOR ANTAGONISTS” (Recordati Industria Chimica E Farmaceutica SPA, priority 2022, dated 2024).

Molecular target: T1, human P2X3 receptor (Homo sapiens, UniProt P56373)
T1 construct: expressed in transfected cells; host or cells: CHO-K1
T1 sequence (P56373 1-397): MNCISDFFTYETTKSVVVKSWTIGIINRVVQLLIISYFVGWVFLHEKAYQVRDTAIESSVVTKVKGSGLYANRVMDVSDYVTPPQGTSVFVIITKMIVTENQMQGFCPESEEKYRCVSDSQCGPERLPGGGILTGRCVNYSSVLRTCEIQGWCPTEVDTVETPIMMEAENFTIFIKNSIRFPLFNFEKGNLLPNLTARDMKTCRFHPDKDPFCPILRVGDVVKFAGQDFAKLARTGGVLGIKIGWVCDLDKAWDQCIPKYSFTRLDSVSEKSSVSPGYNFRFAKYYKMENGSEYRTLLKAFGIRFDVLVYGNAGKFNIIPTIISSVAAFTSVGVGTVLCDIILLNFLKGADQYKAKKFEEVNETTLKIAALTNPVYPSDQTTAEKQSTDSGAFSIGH
Test: Calcium luminescence measurement: human P2X3 receptor activity inhibition (CHO-K1 cells, photoprotein readout, FLEXSTATION)
Assay type: cell-based
Conditions: CHO-K1 cells co-expressing human P2X3 and Ca2+ sensitive photoprotein; agonist α,β-Met-ATP; read-out: h-P2X3 IC50
Description: Determination of human P2X3 receptor activity inhibition
The assay for the human purinergic P2RX3 receptor has been adapted to the internal screening instrumentation using the FLEXSTATION as reader and a photoprotein as luminescent readout. The assay consists of CHO-K1 cells recombinantly co-expressing the human P2rx3 receptor and a Ca^2+ sensitive photoprotein. Cells are maintained in DMEM F-12 (1:1) mixture (LONZA cat. n° BE04-687F/U1) supplemented with 9 mL of 100 mM Sodium Pyruvate (LONZA cat. n° BE13-115E), 29 mL of 7.5% Sodium Bicarbonate (LONZA cat. n° BE17-613E), 5.5 mL of 1 M Hepes (LONZA cat. n° BE17-737E), 5 mL of 100X Penicillin/Streptomycin mixture (LONZA cat. n° DE17-602E) and 50 mL of Fetal Bovine Serum (Sigma cat. n° F7524), 1 mg/mL G418 disulfate salt (Sigma cat. n° G8168) and 5 µg/ml Puromycin dihydrochloride (Sigma cat. n° P9620). Standard propagation conditions consist of seeding in a P75 flask twice a week, recovering about 20×10^6 cells, corresponding to about 80% confluency. Cells were seeded into black-walled clear bottom 96 well plates at a density of 40000 cells/well in a complete medium. After 24 h the culture medium was replaced with 200 µL/well of coelenterazine in Tyrode's buffer (Standard Tyrode's buffer: in house solution, 130 mM NaCl, 5 mM KCl, 2 mM CaCl2, 5 mM NaHCO3, 1 mM MgCl2, 20 mM HEPES, pH 7.4). Coelenterazine was purchased from BIOSYNTH (cat. n° C-7001). 10 mM stock solution was prepared in DMSO and glutathione and stored at -20° C. The plates were incubated for 4 hours at 37°C, and injected with 10 µL/well of test compounds at 25X concentration in Tyrode's buffer. After 4 minutes a second injection of 50 µL/well of 5X α,β-Met-ATP in Tyrode's buffer (α,β-Met-ATP: from Tocris (cat. n° 3209), was dissolved at 100 mM in water and stored in aliquots at -20°C) was performed and the signal of the emitted luminescence was recorded by FLEXSTATION III (Molecular Devices). […]
The inhibition curves of the tested compounds at cloned P2X3 receptor were determined by nonlinear regression analysis using software Prism 5.0 (Graphpad, San Diego, CA). The IC50 values and pseudo-Hill slope coefficients were estimated by the program.

Molecule | IC50
CC(C)(C)C1CN2C(=O)N(Cc3ccc(Cl)cc3)c3cc(N4CCOCC4)cnc3C2=N1 (stereo not shown) [Example 4, 2-tert-Butyl-6-(4-chlorobenzyl)-8-(morpholin-4-yl)-2,6-dihydroimidazo[1,2-c]pyrido[2,3-e]pyrimidin-5(3H)-one] | 181 nM
CC(C)C1CN2C(=O)N(Cc3ccc(Cl)cc3)c3cc(NC(CO)CO)cnc3C2=N1 (stereo not shown) [Example 15, 6-[(4-Chlorophenyl)methyl]-8-[(1,3-dihydroxypropan-2-yl)amino]-2-(propan-2-yl)-2,6-dihydroimidazo[1,2-c]pyrido[2,3-e]pyrimidin-5(3H)-one] | 11800 nM
CC(C)(C)c1nc2c3ncc(N4CCCC(O)C4)cc3n(Cc3ccc(Cl)cc3)c(=O)n2n1 (stereo not shown) [Example 52, 2-tert-Butyl-6-[(4-chlorophenyl)methyl]-8-(3-hydroxypiperidin-1-yl)pyrido[2,3-e][1,2,4]triazolo[1,5-c]pyrimidin-5(6H)-one] | 215 nM
CC(C)C1CN=C2c3ncc(N4CCOCC4)cc3N(Cc3ccc(Cl)cc3)C(=O)N21 (stereo not shown) [Example 1, 6-(4-Chlorobenzyl)-8-(morpholin-4-yl)-3-(propan-2-yl)-2,6-dihydroimidazo[1,2-c]pyrido[2,3-e]pyrimidin-5(3H)-one] | 703 nM
CC1(C)CN2C(=O)N(Cc3ccc(Cl)cc3)c3cc(N4CCOCC4)cnc3C2=N1 [Example 2, 6-(4-Chlorobenzyl)-2,2-dimethyl-8-(morpholin-4-yl)-2,6-dihydroimidazo[1,2-c]pyrido[2,3-e]pyrimidin-5(3H)-one] | 1010 nM
3-tert-Butyl-6-[(4-chlorophenyl)methyl] -8-[4-(hydroxymethyl)piperidin-1-yl]pyrido[2,3-e][1,2,4]triazolo[4,3-c]pyrimidin-5(6H)-one [Example 41] | 9.5 nM
COc1cc(Cn2c(=O)n3c(C(C)(C)C)nnc3c3ncc(N4CCOCC4)cc32)ccc1F [Example 42, 3-tert-Butyl-6-[(4-fluoro-3-methoxyphenyl)methyl] -8-(morpholin-4-yl)pyrido[2,3-e][1,2,4]triazolo[4,3-c]pyrimidin-5(6H)-one] | 1170 nM
CC(C)(CO)C1CN2C(=O)N(Cc3ccc(Cl)cc3)c3cc(N4CCOCC4)cnc3C2=N1 (stereo not shown) [Example 12, 6-(4-Chlorobenzyl)-2-(1-hydroxy-2-methylpropan-2-yl)-8-(morpholin-4-yl)-2,6-dihydroimidazo[1,2-c]pyrido[2,3-e]pyrimidin-5(3H)-one] | 54 nM
COc1ccc(Cn2c(=O)n3c(C(C)(C)C)nnc3c3ncc(N4CCC(N)CC4)cc32)cc1 [Example 40, 8-(4-Aminopiperidin-1-yl)-3-tert-butyl-6-[(4-methoxyphenyl)methyl]pyrido[2,3-e][1,2,4]triazolo[4,3-c]pyrimidin-5(6H)-one] | 491 nM
CC(C)C1CN2C(=O)N(Cc3ccc(Cl)cn3)c3cc(N4CCOCC4)cnc3C2=N1 (stereo not shown) [Example 13, 6-[(5-Chloropyridin-2-yl)methyl]-8-(morpholin-4-yl)-2-(propan-2-yl)-2,6-dihydroimidazo[1,2-c]pyrido[2,3-e]pyrimidin-5(3H)-one] | 865 nM
CC(C)C1CN2C(=O)N(Cc3ccc(Cl)cc3)c3cc(N4CCC(N)CC4)cnc3C2=N1 (stereo not shown) [Example 7, 8-(4-Aminopiperidin-1-yl)-6-[(4-chlorophenyl)methyl]-2-(propan-2-yl)-2,6-dihydroimidazo[1,2-c]pyrido[2,3-e]pyrimidin-5(3H)-one] | 642 nM
CC(C)C1CN2C(=O)N(Cc3ccc(Cl)cc3)c3cc(NC4CCOCC4)cnc3C2=N1 (stereo not shown) [Example 16, 6-[(4-Chlorophenyl)methyl]-8-[(oxan-4-yl)amino]-2-(propan-2-yl)-2,6-dihydroimidazo[1,2-c]pyrido[2,3-e]pyrimidin-5(3H)-one] | 872 nM
COc1cc(CN2C(=O)N3CC(C(C)(C)C)N=C3c3ncc(N4CCOCC4)cc32)cc(OC)c1 (stereo not shown) [Example 3, 2-tert-Butyl-6-(3,5-dimethoxybenzyl)-8-(morpholin-4-yl)-2,6-dihydroimidazo[1,2-c]pyrido[2,3-e]pyrimidin-5(3H)-one] | 27.3 nM
CC(C)c1nnc2c3ncc(N4CCC(=O)CC4)cc3n(Cc3ccc(Cl)cc3)c(=O)n12 [Example 39, 6-[(4-Chlorophenyl)methyl]-8-(4-oxopiperidin-1-yl)-3-(propan-2-yl)pyrido[2,3-e][1,2,4]triazolo[4,3-c]pyrimidin-5(6H)-one] | 1260 nM
CC(C)(C)Cc1nc2c3nnc(N4CCOCC4)cc3n(Cc3ccc(Cl)cc3)c(=O)n2n1 [Example 54, 5-[(4-Chlorophenyl)methyl]-9-(2,2-dimethylpropyl)-3-(morpholin-4-yl)[1,2,4]triazolo[1',5':1,6]pyrimido[5,4-c]pyridazin-6(5H)-one] | 24.9 nM
CC(C)[C@H]1CN2C(=O)N(Cc3ccc(Cl)cc3)c3cc(N4CCOCC4)cnc3C2=N1 (single isomer, unassigned) [Example 10] | 1080 nM
COC(C)(C)c1nnc2c3nnc(N4CCN(C(C)=O)CC4)cc3n(Cc3ccc(Cl)cc3)c(=O)n12 [Example 47, 8-(4-Acetylpiperazin-1-yl) -6-[(4-chlorophenyl)methyl]-3-(2-methoxypropan-2-yl)[1,2,4]triazolo[4',3': 1,6]pyrimido[5,4-c]pyridazin-5(6H)-one] | 242 nM
COc1ccc(Cn2c(=O)n3c(C(C)(C)OC)nnc3c3ncc(N4CCOCC4)cc32)cc1 [Example 33, 6-(4-Methoxybenzyl)-3-(2-methoxypropan-2-yl)-8-(morpholin-4-yl)pyrido[2,3-e][1,2,4]triazolo[4,3-c]pyrimidin-5(6H)-one] | 301 nM
COc1ccc(Cn2c(=O)n3c(C(C)(C)C)nnc3c3ncc(N4CCC(OC)CC4)cc32)cc1 [Example 37, 3-tert-Butyl-6-[(4-methoxyphenyl)methyl] -8-(4-methoxypiperidin-1-yl)pyrido[2,3-e][1,2,4]triazolo[4,3-c]pyrimidin-5(6H)-one] | 339 nM
COC(C)(C)c1nnc2c3nnc(N4CCN(C(=O)OC(C)(C)C)CC4)cc3n(Cc3ccc(Cl)cc3)c(=O)n12 [Example 45, tert-Butyl 4-{6-[(4-chlorophenyl)methyl]-3-(2-methoxypropan-2-yl)-5-oxo-5,6-dihydro[1,2,4]triazolo[4',3':1,6]pyrimido[5 ,4-c]pyridazin-8-yl}piperazine-1-carboxylate] | 2550 nM
CC(C)C1C(=O)N=C2c3ncc(N4CCOCC4)cc3N(Cc3ccc(Cl)cc3)C(=O)N21 (single isomer, unassigned) [Example 23, (R or S)-6-[(4-Chlorophenyl)methyl]-8-(morpholin-4-yl)-3-(propan-2-yl)imidazo[1,2-c]pyrido[2,3-e]pyrimidine-2,5(3H,6H)-dione] | 64.7 nM
COC(C)(C)c1nnc2c3nnc(N4CCNCC4)cc3n(Cc3ccc(Cl)cc3)c(=O)n12 [Example 46, 6-[(4-Chlorophenyl)methyl]-3-(2-methoxypropan-2-yl)-8-(piperazin-1-yl)[1,2,4]triazolo[4',3': 1,6]pyrimido[5,4-c]pyridazin-5(6H)-one] | 322 nM
CC(C)[C@@H]1CN2C(=O)N(Cc3ccc(Cl)cc3)c3cc(N4CCOCC4)cnc3C2=N1 (single isomer, unassigned) [Example 11] | 113 nM
CC(C)C1C(=O)N=C2c3ncc(N4CCC(=O)CC4)cc3N(Cc3ccc(Cl)cc3)C(=O)N21 (stereo not shown) [Example 25, 6-[(4-Chlorophenyl)methyl]-8-(4-oxopiperidin-1-yl)-3-(propan-2-yl)imidazo[1,2-c]pyrido[2,3-e]pyrimidine-2,5(3H,6H)-dione] | 123 nM
CC(C)C1C(=O)N=C2c3ncc(N4CCOCC4)cc3N(Cc3ccc(Cl)cc3)C(=O)N21 (single isomer, unassigned) [Example 24, (S or R)-6-[(4-Chlorophenyl)methyl]-8-(morpholin-4-yl)-3-(propan-2-yl)imidazo[1,2-c]pyrido[2,3-e]pyrimidine-2,5(3H,6H)-dione] | 56.2 nM
